Assay results published in patent publication EP0570112A1, “Cycloalkane derivatives” (ZENECA LIMITED, priority 1992, dated 1993).

Molecular target: T1, 5-LO (Homo sapiens, UniProt P09917)
T1 construct: incubating a test compound with heparinised human blood, prior to challenge with the calcium ionophore A23187; endogenous in cells; host or cells: blood cells of heparinised human whole blood
T1 sequence (P09917 1-674): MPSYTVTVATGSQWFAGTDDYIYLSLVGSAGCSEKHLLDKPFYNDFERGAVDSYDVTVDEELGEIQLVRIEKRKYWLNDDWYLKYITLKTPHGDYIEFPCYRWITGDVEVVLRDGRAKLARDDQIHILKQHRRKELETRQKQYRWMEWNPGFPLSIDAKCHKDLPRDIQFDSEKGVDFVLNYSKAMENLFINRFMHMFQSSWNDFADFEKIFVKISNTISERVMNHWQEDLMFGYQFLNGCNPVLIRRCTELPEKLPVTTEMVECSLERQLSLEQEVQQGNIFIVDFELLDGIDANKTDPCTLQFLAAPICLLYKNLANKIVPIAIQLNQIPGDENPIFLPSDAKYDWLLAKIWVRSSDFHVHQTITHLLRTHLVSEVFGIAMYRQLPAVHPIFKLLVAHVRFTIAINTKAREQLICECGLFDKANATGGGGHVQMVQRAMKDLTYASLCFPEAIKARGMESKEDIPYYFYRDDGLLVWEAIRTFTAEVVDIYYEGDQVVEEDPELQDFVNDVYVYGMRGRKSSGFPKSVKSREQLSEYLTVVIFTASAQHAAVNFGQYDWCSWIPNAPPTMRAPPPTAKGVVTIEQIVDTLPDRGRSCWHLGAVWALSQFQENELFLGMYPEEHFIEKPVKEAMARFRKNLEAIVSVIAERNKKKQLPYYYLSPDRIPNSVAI
Assay: Test a): in vitro heparinised human blood challenged with calcium ionophore A23187, radioimmunoassay of LTB4
Assay type: cell-based
Conditions: A23187 challenge, read-out: IC₅₀ against LTB₄
Description: As stated previously, the compounds of the formula I are inhibitors of the enzyme 5-LO. […] J. Pharmacol. 1985, 84, 34P) which involve the use of a protein-LTB₄ conjugate produced using the procedure of Young et alia (Prostaglandins, 1983, 26(4), 605-613). The effects of a test compound on the enzyme cyclooxygenase (which is involved in the alternative metabolic pathway for arachidonic acid and gives rise to prostaglandins, thromboxanes and related metabolites) may be measured at the same time using the specific radioimmunoassay for thromboxane B₂(TxB₂) described by Carey and Forder (see above). This test provides an indication of the effects of a test compound against 5-LO and also cyclooxygenase in the presence of blood cells and proteins. It permits the selectivity of the inhibitory effect on 5-LO or cyclooxygenase to be assessed. • b) An ex vivo assay system, which is a variation of test a) above, involving administration to a group of rats of a test compound (usually orally as the suspension produced when a solution of the test compound in dimethylsulphoxide is added to carboxymethylcellulose), blood collection, heparinisation, challenge with A23187 and radioimmunoassay of LTB₄ and TxB₂. […]

SMILES	IC50 [nM]
COC1(OC)CC[C@H](C)[C@H](c2cccc(OCc3ccc4c(ccc(=O)n4C)c3)c2)C1 (racemic) [Example 4, (3RS,4SR)-1,1-dimethoxy-4-methyl-3-[3-(1-methyl-2-oxo-1,2-dihydroquinolin-6-ylmethoxy)phenyl]cyclohexane]	40
COC1CCC(C)C(c2cccc(OCc3ccc4c(ccc(=O)n4C)c3)c2)C1 (centres unmarked) [Example 2, 1-methoxy-4-methyl-3-[3-(1-methyl-2-oxo-1,2-dihydroquinolin-6-ylmethoxy)phenyl]cyclohexane]	390
